Reference: BindingDB's records for doi:10.1016/j.bmc.2015.01.026 (Virginia Tech, 2015)

What follows are compounds tested against Acetylcholinesterase (Homo sapiens, UniProt P22303) (assay: Inhibition of recombinant human AChE). Settings: read-out: kon (M-1-s-1).
Acetylcholinesterase, sequence (P22303 whole entry): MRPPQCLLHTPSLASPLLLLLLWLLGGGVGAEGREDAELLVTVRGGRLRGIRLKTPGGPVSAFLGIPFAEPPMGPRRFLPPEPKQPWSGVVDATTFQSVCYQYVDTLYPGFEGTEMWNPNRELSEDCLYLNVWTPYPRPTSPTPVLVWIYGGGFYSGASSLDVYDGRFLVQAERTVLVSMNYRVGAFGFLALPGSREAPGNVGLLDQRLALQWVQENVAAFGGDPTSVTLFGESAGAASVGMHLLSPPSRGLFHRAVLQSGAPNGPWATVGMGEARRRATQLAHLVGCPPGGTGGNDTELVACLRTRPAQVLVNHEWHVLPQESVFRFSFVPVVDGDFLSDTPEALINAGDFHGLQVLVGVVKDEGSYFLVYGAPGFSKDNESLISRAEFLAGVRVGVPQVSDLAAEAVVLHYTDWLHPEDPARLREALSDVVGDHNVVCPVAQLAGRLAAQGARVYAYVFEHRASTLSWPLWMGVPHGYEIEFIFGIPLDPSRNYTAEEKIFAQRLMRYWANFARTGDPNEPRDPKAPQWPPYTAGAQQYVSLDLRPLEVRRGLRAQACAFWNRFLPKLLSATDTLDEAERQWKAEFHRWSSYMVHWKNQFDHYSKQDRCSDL

| SMILES | kon |
| --- | --- |
| CNC(=O)Oc1cccc(C(C)(C)C)c1 | 2100 M⁻¹ s⁻¹ |
| CCC(C)n1cc(OC(=O)NC)cn1 (stereo not drawn) | 13400 M⁻¹ s⁻¹ |
| Cc1cc(=O)n(C(=O)N(C)C)o1 | 20.3 M⁻¹ s⁻¹ |
| CN(C)C(=O)n1oc(C2CC2)cc1=O | 1720 M⁻¹ s⁻¹ |
| CC(C)c1cc(=O)n(C(=O)N(C)C)o1 | 9350 M⁻¹ s⁻¹ |
| CN(C)C(=O)n1oc(C2CCC2)cc1=O | 3880 M⁻¹ s⁻¹ |
| CCC(C)c1cc(=O)n(C(=O)N(C)C)o1 (stereo not drawn) | 36200 M⁻¹ s⁻¹ |
| CN(C)C(=O)n1oc(C2CCCC2)cc1=O | 11300 M⁻¹ s⁻¹ |
| CCCC(C)c1cc(=O)n(C(=O)N(C)C)o1 (stereo not drawn) | 51800 M⁻¹ s⁻¹ |
| CCC(CC)c1cc(=O)n(C(=O)N(C)C)o1 | 33200 M⁻¹ s⁻¹ |
| CC(C)Cc1cc(=O)n(C(=O)N(C)C)o1 | 515 M⁻¹ s⁻¹ |
| CCC(C)Cc1cc(=O)n(C(=O)N(C)C)o1 (stereo not drawn) | 1870 M⁻¹ s⁻¹ |
| CC(C)CCc1cc(=O)n(C(=O)N(C)C)o1 | 1350 M⁻¹ s⁻¹ |
| CN(C)C(=O)n1oc(CCC2CC2)cc1=O | 2400 M⁻¹ s⁻¹ |
| CN(C)C(=O)n1oc(CCC2CCC2)cc1=O | 1240 M⁻¹ s⁻¹ |
| CN(C)C(=O)n1oc(CCC2CCCC2)cc1=O | 1530 M⁻¹ s⁻¹ |
| CCCC(C)c1cc(=O)n(C(=O)N2CCC2)o1 (stereo not drawn) | 31000 M⁻¹ s⁻¹ |
| CCCC(C)c1cc(=O)n(C(=O)N(C)CC)o1 (stereo not drawn) | 18000 M⁻¹ s⁻¹ |
| CCCC(C)c1cc(=O)n(C(=O)N(CC)CC)o1 (stereo not drawn) | 3000 M⁻¹ s⁻¹ |
| CCCC(C)c1cc(=O)n(C(=O)N2CCCC2)o1 (stereo not drawn) | 6320 M⁻¹ s⁻¹ |
| CCCC(C)c1cc(=O)n(C(=O)N2CCOCC2)o1 (stereo not drawn) | 433 M⁻¹ s⁻¹ |
| Cc1cc(OC(=O)N(C)C)no1 | 1.97 M⁻¹ s⁻¹ |

| SMILES | kon |
| --- | --- |
| CN(C)C(=O)Oc1cc(C2CC2)on1 | 33.7 M⁻¹ s⁻¹ |
| CC(C)c1cc(OC(=O)N(C)C)no1 | 74.3 M⁻¹ s⁻¹ |
| CN(C)C(=O)Oc1cc(C2CCC2)on1 | 31 M⁻¹ s⁻¹ |
| CCC(C)c1cc(OC(=O)N(C)C)no1 (stereo not drawn) | 1000 M⁻¹ s⁻¹ |
| CN(C)C(=O)Oc1cc(C2CCCC2)on1 | 77 M⁻¹ s⁻¹ |
| CCCC(C)c1cc(OC(=O)N(C)C)no1 (stereo not drawn) | 848 M⁻¹ s⁻¹ |
| CCC(CC)c1cc(OC(=O)N(C)C)no1 | 151 M⁻¹ s⁻¹ |
| CCCCC(CC)c1cc(OC(=O)N(C)C)no1 (stereo not drawn) | 35.5 M⁻¹ s⁻¹ |
| CC(C)Cc1cc(OC(=O)N(C)C)no1 | 26.5 M⁻¹ s⁻¹ |
| CCC(C)Cc1cc(OC(=O)N(C)C)no1 (stereo not drawn) | 28.3 M⁻¹ s⁻¹ |
| CN(C)C(=O)Oc1cc(CC(C)(C)C)on1 | 7.33 M⁻¹ s⁻¹ |
| CC(C)CCc1cc(OC(=O)N(C)C)no1 | 31.8 M⁻¹ s⁻¹ |
| CN(C)C(=O)Oc1cc(CCC2CC2)on1 | 138 M⁻¹ s⁻¹ |
| CN(C)C(=O)Oc1cc(CCC2CCC2)on1 | 121 M⁻¹ s⁻¹ |
| CN(C)C(=O)Oc1cc(CCC2CCCC2)on1 | 218 M⁻¹ s⁻¹ |
| CCCC(C)c1cc(OC(=O)N(C)CC)no1 (stereo not drawn) | 152 M⁻¹ s⁻¹ |
| CCCC(C)c1cc(OC(=O)N2CCCC2)no1 (stereo not drawn) | 27 M⁻¹ s⁻¹ |
| CCCC(C)c1cc(OC(=O)N2CCOCC2)no1 (stereo not drawn) | 44.7 M⁻¹ s⁻¹ |
| CNC(=O)Oc1cccc2c1OC(C)(C)O2 [CHEBI:34556] | 1850 M⁻¹ s⁻¹ |
| CNC(=O)Oc1cccc2c1OC(C)(C)C2 [CHEBI:34611] | 7130 M⁻¹ s⁻¹ |
| CNC(=O)Oc1ccccc1OC(C)C [CHEBI:34938] | 283 M⁻¹ s⁻¹ |
